Data reported in US20220373535A1, “METHODS OF IDENTIFICATION OF SYNERGISTIC ANTI-CANCER MULTIDRUG COMBINATIONS AND USES THEREOF” (UNIVERSITE DE GENEVE, priority 2019, published 2022).

Legend:
786-O cells [1] = assay: in vitro cell viability bioassay measuring cell metabolic activity (CellTiterGlo); assay type: cell-based, human; conditions: for IC20: ED20 (or lower, based on clinically attainable plasma concentrations), highest dose for combinatorial screening; for EC50: 786-0, dose that inhibited 50% of cell viability vs control, 72 h treatment, read-out: ED50 (the source's name)
Method: Seeding density was 2-10×10^3cells/well, depending on the cell line's growth characteristics such that the control cells approach confluency at the time of the assay readout. Subsequently, cell viability was assessed using the CellTiterGlo® luminescence assay (Promega, Madison, Wis., USA) and cell viability was reported as the luminescence signal in the treated wells normalized to the signal in the DMSO treated control wells. Dose-response curves and IC50 values were determined in Graphpad Prism® using a four-parameter non-linear fit of the log transformed dose data of each compound.

786-O cells [2] = assay: mitosis live cell imaging (SiR-tubulin); assay type: cell-based, human; conditions: single drug alone
Method: In order to test whether C2 treatment affects cell division, this process was monitored by live cell imaging. 786-O cells were treated with 0.1% DMSO in the cell culture medium (CTRL) or C2 and stained with the live cell dye SiR-tubulin (microtubule marker) to label the mitotic spindle, monitor mitotic progression and detect any cytokinesis failure. All experiments were performed in the presence of Valspodar (4 μM), a multi-drug pump inhibitor that prevented SiR-tubulin removal from the cell (this concentration of Valspodar had no effect on the efficacy of C2). Live cells were recorded for 24 hours at a temporal resolution of 3 minutes (FIG. 7A).
20 points were taken per condition.

COLO-205 cells = assay: cell metabolic activity assay (CellTitre-Glo), CRC line; assay type: cell-based; conditions: COLO-205, CIN and high centrosome numbers
Method: C2 and the individual drugs present in C2 were assayed in a cell metabolic activity assay (CellTitre-Glo) where the bioluminescence was detected, to the following cell panel: two MIN (microsatellite instability) cell lines (HCT-116 and DLD1), two CIN (chromosomal instability) cell lines (SW480 and SW620), COLO205 (CIN and high centrosome numbers), HT29 (CIN and replication stress induced centriole dis-engagement), CCD841 (non-malignant colon cell line; negative control) and 786-O (renal carcinoma cell line; positive control).

| Structure (SMILES) | EC50 (786-O cells [1]; Homo sapiens) [nM] | IC20 (786-O cells [1]; Homo sapiens, 786-0, 72 h) [nM] | effect on mitosis duration (786-O cells [2]) | IC20 (786-O cells [1]) [nM] | killing / toxicity (cell metabolic activity) (COLO-205 cells) |
| --- | --- | --- | --- | --- | --- |
| C#Cc1cccc(Nc2ncnc3cc(OCCOC)c(OCCOC)cc23)c1 [erlotinib, N-(3-Ethynylphenyl)-6,7-bis(2-methoxyethoxy) quinazolin-4-amine] | 6600 | 2000 | small delay in mitosis |  |  |
| CNC(=O)c1cc(Oc2ccc(NC(=O)Nc3ccc(Cl)c(C(F)(F)F)c3)cc2)ccn1 [sorafenib] |  | 10 |  |  |  |
| O=C(CCCCCCC(=O)Nc1ccccc1)NO [SAHA] |  |  |  | 1000 |  |
| CNC(=O)c1ccccc1Sc1ccc2c(/C=C/c3ccccn3)n[nH]c2c1 [axitinib] |  | 200 |  |  |  |
| Cc1nc(Nc2ncc(C(=O)Nc3c(C)cccc3Cl)s2)cc(N2CCN(CCO)CC2)n1 [dasatinib, N-(2-chloro-6-methylphenyl)-2-[[6-[4-(2-hydroxyethyl)piperazin-1-yl]-2-methylpyrimidin-4-yl]amino]-1,3-thiazole-5-carboxamide] | 100 | 50 |  |  |  |

Now from value to compound, other results behind:

| EC50 (786-O cells [1]; Homo sapiens) [nM] | Structure (SMILES) | IC20 (786-O cells [1]; Homo sapiens, 786-0, 72 h) [nM] | effect on mitosis duration (786-O cells [2]) | IC20 (786-O cells [1]) [nM] | killing / toxicity (cell metabolic activity) (COLO-205 cells) |
| --- | --- | --- | --- | --- | --- |
| 11500 | CC(=O)Nc1ccc(C(=O)Nc2ccccc2N)cc1 [CI-994, 4-(Acetylamino)-N-(2-aminophenyl)benzamide] | 1000 |  |  |  |
| 10 | Cc1[nH]c2ccccc2c1CCNCc1ccc(/C=C/C(=O)NO)cc1 [LBH-589] | 2 |  |  |  |
| 6000 | O=C(CCCCCCC(=O)Nc1ccc([C@H]2O[C@@H](CSc3nc(-c4ccccc4)c(-c4ccccc4)o3)C[C@@H](c3ccc(CO)cc3)O2)cc1)NO [tubacin, N-(4-{(2R,4R,6S)-4-{[(4,5-diphenyl-1,3-oxazol-2-yl)sulfanyl]methyl}is [4-(hydroxymethyl)phenyl]-1,3-dioxan-2-yl}phenyl)-N′-hydroxyoctanediamide] | 2000 | small delay in mitosis |  | partial toxicity |
| 90 | Cn1c(=O)n(-c2ccc(C(C)(C)C#N)cc2)c2c3cc(-c4cnc5ccccc5c4)ccc3ncc21 [BEZ-235] | 20 |  |  |  |
| 33000 | Cc1cc(Nc2cc(N3CCN(C)CC3)nc(Sc3ccc(NC(=O)C4CC4)cc3)n2)[nH]n1 [VX-680] | 650 |  |  |  |
